Assay results from patent US20240132473A1, “SULFOXIMIDE SUBSTITUTED INDAZOLE IRAK4 KINASE INHIBITOR, PREPARATION METHOD THEREOF AND USE THEREOF” (Shanghai Xunhe Pharmaceutical Technology Co. Ltd., priority 2021, published 2024).

Legend:
[1] = test system: TNF-α secretion in THP-1 cells; experiment: Inhibition of LPS-stimulated TNF-α secretion in THP-1 cells (ELISA); type: cell-based; settings: Homo sapiens, LPS 1 μg/mL, 4.5 hours
Procedure: TNF-α is a key cytokine involved in the inflammatory process of the listed autoimmune disease, such as rheumatoid arthritis, psoriatic arthritis, ankylosing spondylitis, psoriasis, Crohn's disease, ulcerative colitis, etc. In this test, TNF-α secretion was triggered by incubation with bacterial lipopolysaccharides (LPS). […] The 96-well plate was rotated at 2000 rpm for 5 minutes, and then 50 μL of supernatant was taken. The content of TNF-α in the supernatant was determined by human ELISA kit, and IC50 value of the compound was calculated by XL-Fit (table 4).

in vivo [2] = settings: rat, po; for half-life: SD, in vivo; for AUC(0-t) / Cmax / Tmax: plasma, 25 mg/kg
Procedure: SD rats were used as the test animals.
Standard curve and preparation and processing of quality control samples:
Stock solution was diluted with 50% acetonitrile-water to obtain standard working solutions of 0.04, 0.10, 0.20, 0.40, 1.00, 2.00, 4.00 μg/mL, and quality control working solutions of 0.10, 1.00, 3.00 μg/mL. […] 200 μL of acetonitrile (containing 5 ng/mL of the internal standard loratadine) was added. After the vortex oscillation for 3 minutes, the solutions were centrifuged at 15000 rpm at 4° C. for 15 minutes. 100 μL of the supernatant was taken for LC-MS/MS analysis. WinNonlin ® 8.0 was used to calculate the experimental results.

IRAK4 kinase = IRAK4 kinase (Homo sapiens (Human), UniProt Q9NWZ3); experiment: IRAK4 kinase inhibitory activity assay (mobility shift assay, Km ATP); type: biochemical; settings: MSA, ATP 37 μM (Km ATP)
Chain of IRAK4 kinase (Q9NWZ3 whole entry): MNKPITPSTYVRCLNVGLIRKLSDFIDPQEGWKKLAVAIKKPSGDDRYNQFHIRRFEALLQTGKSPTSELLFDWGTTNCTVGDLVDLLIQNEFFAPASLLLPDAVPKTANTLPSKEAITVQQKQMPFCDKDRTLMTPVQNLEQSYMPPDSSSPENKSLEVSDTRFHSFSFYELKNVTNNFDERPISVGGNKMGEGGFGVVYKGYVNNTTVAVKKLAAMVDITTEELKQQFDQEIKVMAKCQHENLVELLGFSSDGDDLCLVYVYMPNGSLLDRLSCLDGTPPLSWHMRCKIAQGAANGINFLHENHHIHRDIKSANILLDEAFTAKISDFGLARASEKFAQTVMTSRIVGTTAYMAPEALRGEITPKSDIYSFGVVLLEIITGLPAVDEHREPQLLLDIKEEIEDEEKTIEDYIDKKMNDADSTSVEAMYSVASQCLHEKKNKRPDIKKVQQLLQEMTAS
Procedure: The inhibitory activity (IC50) of the compound on IRAK4 kinase under Km ATP was detected by mobility shift assay (MSA). Ten drug concentration gradients were set (initial concentration 1 μM, 3-fold dilution, 2 duplicate wells per concentration). […] After incubation at 28° C. for a period of time, 10 μL of termination buffer was added to terminate the reaction. The conversion rate data was read with Caliper, and then the conversion rate was converted into inhibition rate data. According to the inhibition rate data of each concentration, the IC50 of half inhibitory concentration was calculated by Logit method (Table 3).

in vivo [3] = settings: ICR, mouse, po
Procedure: On the day of administration, observations were made approximately 0.5, 1, 2, 4, and 6 hours after the first administration. During day 2 to day 6 of the observation period, observations were made twice a day, once in the morning and once in the afternoon.
Observations included but not limited to: general conditions, behavioral activities, gait and posture, eyes, mouth, nose, gastrointestinal tract, skin hair and urogenital tract.
Weight data were expressed as mean ±standard deviation. Levene's test and one-way analysis of variance were used for comparison between groups. If there was a difference, Dunnet t test was then used.
The maximum tolerated dose refers to the dose administered when the animal was dying.

hERG potassium channel = hERG potassium channel (Homo sapiens (Human), UniProt Q12809); experiment: cell-based
Chain of hERG potassium channel (Q12809 whole entry): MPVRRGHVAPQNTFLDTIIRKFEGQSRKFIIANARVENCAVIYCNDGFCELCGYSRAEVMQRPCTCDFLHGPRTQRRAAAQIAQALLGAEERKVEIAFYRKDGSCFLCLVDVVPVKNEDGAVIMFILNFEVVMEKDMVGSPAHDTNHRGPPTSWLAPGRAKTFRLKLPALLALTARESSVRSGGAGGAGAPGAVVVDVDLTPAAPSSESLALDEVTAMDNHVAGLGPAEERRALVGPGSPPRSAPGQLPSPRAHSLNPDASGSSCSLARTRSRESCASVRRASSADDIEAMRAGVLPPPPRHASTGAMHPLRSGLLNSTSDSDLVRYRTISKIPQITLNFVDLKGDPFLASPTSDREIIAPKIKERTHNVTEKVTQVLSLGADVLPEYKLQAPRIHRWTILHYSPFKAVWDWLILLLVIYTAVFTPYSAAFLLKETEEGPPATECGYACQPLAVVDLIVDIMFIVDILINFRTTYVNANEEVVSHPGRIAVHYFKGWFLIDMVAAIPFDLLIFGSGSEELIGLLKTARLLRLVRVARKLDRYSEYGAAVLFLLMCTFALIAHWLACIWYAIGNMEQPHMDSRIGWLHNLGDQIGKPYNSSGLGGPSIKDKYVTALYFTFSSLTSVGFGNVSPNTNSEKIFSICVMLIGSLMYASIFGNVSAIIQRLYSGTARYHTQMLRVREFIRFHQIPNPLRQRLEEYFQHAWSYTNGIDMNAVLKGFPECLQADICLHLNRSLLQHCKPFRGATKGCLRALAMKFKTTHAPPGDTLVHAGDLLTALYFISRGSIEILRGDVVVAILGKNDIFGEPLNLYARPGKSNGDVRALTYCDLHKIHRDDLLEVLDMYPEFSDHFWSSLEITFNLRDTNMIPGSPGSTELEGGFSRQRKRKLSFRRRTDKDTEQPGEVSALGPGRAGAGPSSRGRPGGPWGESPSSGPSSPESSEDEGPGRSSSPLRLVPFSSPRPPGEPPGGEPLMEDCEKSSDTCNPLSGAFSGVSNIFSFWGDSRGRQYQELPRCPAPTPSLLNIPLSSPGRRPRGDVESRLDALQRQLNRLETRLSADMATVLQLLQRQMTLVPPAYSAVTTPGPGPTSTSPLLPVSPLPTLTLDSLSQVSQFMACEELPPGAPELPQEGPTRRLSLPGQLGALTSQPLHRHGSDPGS
From the text: The rapid activation of delayed rectifier outward potassium current (IKr) in humans is mainly mediated by hERG ion channel and participates in human myocardial cell repolarization. Drug blockade of this current will lead to the appearance of QT interval prolongation syndrome in clinical practice, which can easily induce acute arrhythmia and even sudden death.

SMILES | IC50 [1] [nM] | half-life (in vivo [2]) [h] | AUC(0-t) (in vivo [2]) [ng·h/mL] | Cmax (in vivo [2]) [ng/mL] | Tmax (in vivo [2]) [h] | IC50 (IRAK4 kinase) [nM] | MTD at 6 days (in vivo [3]) [mg/kg] | IC50 (hERG potassium channel) [nM]
Cc1cc(-c2nc(C(=O)Nc3cc4cn(CCS(=N)(=O)c5ccncc5)nc4cc3N3CCOCC3)co2)ccn1 (centres unmarked) [Compound I-17] | 1.2 | 5.4 | 8200 | 1430 | 5.8 | 0.5 |  | 
Cc1cc(-c2nc(C(=O)Nc3cc4cn(CCS(=N)(=O)c5ccncc5)nc4cc3N3CCC(O)C3)co2)ccn1 (centres unmarked) [Compound I-18] | 1.4 |  |  |  |  | 0.4 |  | 
COc1cc2nn(CCS(=N)(=O)c3ccccn3)cc2cc1NC(=O)c1cccc(C(F)(F)F)n1 (centres unmarked) [Compound I-19] | 0.9 |  |  |  |  | 0.8 |  | 
Cc1cc(-c2nc(C(=O)Nc3cc4cn(CCS(=N)(=O)c5ccccn5)nc4cc3N3CCC(O)C3)co2)ccn1 (centres unmarked) [Compound I-20] | 1.1 | 4.5 | 7500 | 1400 | 4.9 | 0.6 |  | 
CC(C)(O)c1cc2nn(CCS(=N)(=O)c3ccccc3)cc2cc1NC(=O)c1cnn2cccnc12 (centres unmarked) [Compound I-22] | 0.8 |  |  |  |  | 0.3 |  | 
N=S(=O)(CCn1cc2cc(NC(=O)c3cnn4cccnc34)c(N3CCOCC3)cc2n1)c1ccnc2ccccc12 (centres unmarked) [Compound I-23] | 1.1 |  |  |  |  | 0.4 |  | 
N=S(=O)(CCn1cc2cc(NC(=O)c3cnn4cccnc34)c(N3CCC(O)C3)cc2n1)c1ccccn1 (centres unmarked) [Compound I-24] | 0.8 | 5.5 | 8900 | 1420 | 6.2 | 0.8 | > 2000 | 
CN=S(=O)(CCn1cc2cc(NC(=O)c3cccc(C(F)(F)F)n3)c(OC)cc2n1)c1ccccc1 (centres unmarked) [Compound I-25] | 1.2 |  |  |  |  | 0.5 |  | 
COc1cc2nn(CCS(=N)(=O)c3ccc(F)cc3)cc2cc1NC(=O)c1cccc(C(F)(F)F)n1 (centres unmarked) [Compound I-27] | 1.3 |  |  |  |  | 0.7 |  | 
COc1cc2nn(CCS(=N)(=O)c3ccccc3)cc2cc1NC(=O)c1coc(-c2ccnc(C)c2)n1 (centres unmarked) [Compound I-28] | 0.7 |  |  |  |  | 0.7 |  | 
CC(C)(O)c1cc2nn(CCS(C)(=N)=O)cc2cc1NC(=O)c1cccc(C(F)(F)F)n1 (centres unmarked) [MY-004-102, reference compound] | 169 | 1.4 | 700 | 235 | 1.3 |  | 750 | ~50000

More lines, main results first:

IC50 [1] [nM] | half-life (in vivo [2]) [h] | AUC(0-t) (in vivo [2]) [ng·h/mL] | Cmax (in vivo [2]) [ng/mL] | Tmax (in vivo [2]) [h] | IC50 (IRAK4 kinase) [nM] | SMILES | MTD at 6 days (in vivo [3]) [mg/kg] | IC50 (hERG potassium channel) [nM]
0.9 |  |  |  |  | 0.6 | Cc1cc(-c2nc(C(=O)Nc3cc4cn(CCS(=N)(=O)c5ccccc5)nc4cc3N3CCOCC3)co2)ccn1 (centres unmarked) [Compound I-30] |  | 
1 |  |  |  |  | 0.5 | Cc1cc(-c2nc(C(=O)Nc3cc4cn(CCS(=N)(=O)c5ncccn5)nc4cc3C(C)(C)O)co2)ccn1 (centres unmarked) [Compound I-32] |  | 
1.4 |  |  |  |  | 0.4 | N=S(=O)(CCn1cc2cc(NC(=O)c3cnn4cccnc34)c(N3CCOCC3)cc2n1)c1ncccn1 (centres unmarked) [Compound I-33] |  | 
0.7 |  |  |  |  | 0.7 | COc1cc2nn(CCS(=N)(=O)c3nccs3)cc2cc1NC(=O)c1cccc(C(F)(F)F)n1 (centres unmarked) [Compound I-35] |  | 
1.5 | 5.4 | 8490 | 1490 | 5.6 | 0.5 | COc1cc2nn(CCS(=N)(=O)c3ncco3)cc2cc1NC(=O)c1cccc(C(F)(F)F)n1 (centres unmarked) [Compound I-36] |  | 
125 | 1.4 | 734 | 245 | 1.4 |  | COc1cc2nn(CCS(C)(=N)=O)cc2cc1NC(=O)c1cccc(C(F)(F)F)n1 (centres unmarked) [MY-004-103, reference compound] |  | 
